Like-named read-outs stand apart in the source and are kept apart here.
Biological target: T1, Human Recombinant Matriptase 2 (Homo sapiens, UniProt Q8IU80)
T1 construct: made in house
T1 sequence (Q8IU80 1-811): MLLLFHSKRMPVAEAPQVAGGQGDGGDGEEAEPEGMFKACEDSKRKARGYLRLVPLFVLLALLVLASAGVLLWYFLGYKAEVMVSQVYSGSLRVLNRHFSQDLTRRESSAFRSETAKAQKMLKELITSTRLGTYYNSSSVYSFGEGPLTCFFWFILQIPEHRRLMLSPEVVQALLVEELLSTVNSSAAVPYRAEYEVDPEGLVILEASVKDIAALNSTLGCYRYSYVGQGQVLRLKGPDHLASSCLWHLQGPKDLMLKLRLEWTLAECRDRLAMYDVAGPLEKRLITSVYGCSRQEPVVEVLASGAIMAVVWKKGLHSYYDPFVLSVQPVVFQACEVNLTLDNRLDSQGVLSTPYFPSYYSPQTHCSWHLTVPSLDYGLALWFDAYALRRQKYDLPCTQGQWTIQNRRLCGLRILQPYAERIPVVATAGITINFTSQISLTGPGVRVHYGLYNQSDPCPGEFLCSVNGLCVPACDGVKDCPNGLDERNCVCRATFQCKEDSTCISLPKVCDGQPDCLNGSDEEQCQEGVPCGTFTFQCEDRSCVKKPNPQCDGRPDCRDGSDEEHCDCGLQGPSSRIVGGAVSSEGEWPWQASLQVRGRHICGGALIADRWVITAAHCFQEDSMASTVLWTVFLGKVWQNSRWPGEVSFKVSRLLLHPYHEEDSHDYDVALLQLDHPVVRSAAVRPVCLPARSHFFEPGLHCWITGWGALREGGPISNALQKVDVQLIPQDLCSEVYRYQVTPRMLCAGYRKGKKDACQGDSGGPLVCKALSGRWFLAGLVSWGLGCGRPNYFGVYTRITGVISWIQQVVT
Assay: Matriptase 2 inhibition, fluorescence based assay (Method I)
Assay type: biochemical
Settings: Table A, read-out: Mat-2 Ki
Procedure: • Method I: Test compounds were evaluated for their potential to inhibit Human Recombinant Matriptase 2 (in-house) using fluorescence based assay. The concentration of Recombinant Matriptase 2 and the substrate used in the assay was: 3.5 nM (In-house Matriptase 2) and 62 μM (Boc-Gln-Ala-Arg-7-amido-4-methyl coumarin hydrobromide −Cat log: I-1550 from Bachem) respectively. The assay buffer used was 50 mM TRIS pH 7.5, 150 mM NaCl, 0.01% Gelatin TCL059 Himedia). The assay was performed using 384 well black flat bottom plate from grenier (Cat log: 781076) at 25° C. The enzyme and compound were preincubated for 30 mins, the plate was read at 60 mins after substrate addition at wavelength Ex: 360/Em: 480 nm. The final assay volume was 20 μl. A stock solution of compounds was initially prepared in DMSO and appropriate dilutions were made and IC50 was determined for all the compounds (final DMSO conc in the assay was 1%). All the measurements were carried out using the Spectramax M5, Molecular devices.
To determine Ki values, dose response curves were generated by plotting percentage inhibition as a function of inhibitor concentration and the data was fitted to sigmoidal non-linear regression equation (variable slope) using Graph Pad prism software V8.

[1] = Ki of Matriptase-2 given as class symbols

SMILES | Ki (Ki of Matriptase-2) | Ki [1]
COCCN1CC[C@H](COC(=O)c2cc3ccc(CN)nc3n2Cc2cc(NS(=O)(=O)Cc3ccccc3)cc3ccccc23)C1 (racemic) [Compound 138, rac-[(3R)-1-(2-methoxy-ethyl)pyrrolidin-3-yl]-methyl 6-(aminometh-yl)-1-{[3-(phenylmeth-anesulfonamido)naph-thalen-1-yl]methyl}-1H-pyrrolo[2,3-b]pyridine-2-carboxylate] | ≤ 0.1 µM | 
C[C@@H](CCOC(=O)c1cc2ccc(CN)nc2n1Cc1cc(NS(=O)(=O)Cc2ccccc2)cc2ccccc12)N1CCOCC1 (racemic) [Compound 143, rac-(3R)-3-(morpholin-4-yl)butyl 6-(aminometh-yl)-1-{[3-(phenylmeth-anesulfonamido)naph-thalen-1-yl]methyl}-1H-pyrrolo-[2,3-b]pyridine-2-carboxylate] | ≤ 0.1 µM | 
COCCN1CCC[C@H](COC(=O)c2cc3ccc(CN)nc3n2Cc2cc(NS(=O)(=O)Cc3ccccc3)cc3ccccc23)C1 (racemic) [Compound 144, rac-[(3R)-1-(2-methoxy-ethyl)piperidin-3-yl]-methyl 6-(aminometh-yl)-1-(phenylmethane-sulfonamido)naphthalen-1-yl]methyl}-1H-pyrrolo-[2,3-b]pyridine-2-car-boxylate] | ≤ 0.1 µM | 
C[C@H](COC(=O)c1cc2ccc(CN)nc2n1Cc1cc(NS(=O)(=O)Cc2ccccc2)cc2ccccc12)CN1CCOCC1 (racemic) [Compound 145, rac-(2R)-2-methyl-3-(morpholin-4-yl)propyl 6-(aminomethyl)-1-{[3-(phenylmethanesulfon-amido)naphthalen-1-yl]-methyl}-1H-pyrrolo[2,3-b]pyridine-2-carboxylate] | ≤ 0.1 µM | 
COCCN1CCC[C@H](COC(=O)c2cc3ccc(CN)nc3n2Cc2cc(NS(=O)(=O)Cc3ccsc3)cc3ccccc23)C1 (racemic) [Compound 166, [1-(2-methoxyethyl)-piperidin-3-yl]methyl 6-(aminomethyl)-1-({3-[(thiophen-3-yl)methane-sulfonamido]naphthalen-1-yl}methyl)-1H-pyr-rolo[2,3-b]pyridine-2-carboxylate] | ≤ 0.1 µM | 
COCCN1CC[C@H](COC(=O)c2cc3ccc(CN)nc3n2Cc2cc(NS(=O)(=O)Cc3ccsc3)cc3ccccc23)C1 (racemic) [Compound 172, [1-(2-methoxyethyl)-pyrrolidin-3-yl]methyl 6-(aminomethyl)-1-({3-[(thiophen-3-yl)methane-sulfonamido]naphthalen-1-yl}methyl)-1H-pyr-rolo[2,3-b]pyridine-2-carboxylate] | ≤ 0.1 µM | 
COCCN1CCCC(COC(=O)c2cc3ccc(CN)nc3n2Cc2cc(NS(=O)(=O)Cc3c(C)cccc3C)cc3ccccc23)C1 (racemic) [Compound 193, [1-(2-methoxyethyl)-piperidin-3-yl]methyl 6-(aminomethyl)-1-({3-[(2,6-dimethylphenyl)-methanesulfonamido]-naphthalen-1-yl}meth-yl)-1H-pyrrolo[2,3-b]-pyridine-2-carboxylate] | ≤ 0.1 µM | 
COCCN1CC[C@H](COC(=O)c2cc3ccc(CN)nc3n2Cc2cc(NS(=O)(=O)Cc3c(C)cccc3C)cc3ccccc23)C1 (racemic) [Compound 194, [1-(2-methoxyethyl)pyr-rolidin-3-yl]methyl 6-(aminomethyl)-1-({3-[(2,6-dimethylphenyl)-methanesulfonamido]-naphthalen-1-yl}meth-yl)-1H-pyrrolo[2,3-b]-pyridine-2-carboxylate] | ≤ 0.1 µM | 
CC(C)(C)OC(=O)N1CCOC[C@@H]1CS(=O)(=O)Nc1cc(Cn2c(C(=O)O)cc3ccc(CN)nc32)c2ccccc2c1 (racemic) [Compound 277, 6-(aminomethyl)-1-{[3-({4-[(tert-butoxy)car-bonyl]morpholin-3-yl}-methanesulfonamido)-naphthalen-1-yl]methyl}-1H-pyrrolo[2,3-b]pyr-idine-2-carboxylic acid] |  | 0.5 to 3 µM

Results, then the molecule that gave them:

Ki (Ki of Matriptase-2) | Ki [1] | SMILES
 | 0.1 to 0.5 µM | NCc1ccc2cc(C(=O)O)n(Cc3cc(NS(=O)(=O)CC4CNCCO4)cc4ccccc34)c2n1 (racemic) [Compound 224, 6-(aminomethyl)-1-({3-[(morpholin-2-yl)-methanesulfonamido]-naphthalen-1-yl}meth-yl)-1H-pyrrolo[2,3-b]-pyridine-2-carboxylic acid]
 | ≤ 0.1 µM | C[C@@H](C(=O)N(C)C)S(=O)(=O)Nc1cc(Cn2c(C(=O)O)cc3ccc(CN)nc32)c2ccccc2c1 (racemic) [Compound 255, rac-6-(aminomethyl)-1-({3-(dimethylcarbam-oyl)ethanesulfonamido]-naphthalen-1-yl}methyl)-1H-pyrrolo[2,3-b]pyr-idine-2-carboxylic acid]
 | 0.1 to 0.5 µM | NCc1ccc2cc(C(=O)O)n(Cc3cc(NS(=O)(=O)C[C@H]4CCCO4)cc4ccccc34)c2n1 (racemic) [Compound 257, rac-6-(aminomethyl)-1-[(3-{[(2R)-oxolan-2-yl]methanesulfonamido}-naphthalen-1-yl)methyl]-1H-pyrrolo[2,3-b]pyr-idine-2-carboxylic acid]
 | 0.1 to 0.5 µM | NCc1ccc2cc(C(=O)O)n(Cc3cc(NS(=O)(=O)C[C@H]4COCCN4)cc4ccccc34)c2n1 (racemic) [Compound 261, 6-(aminomethyl)-1-({3-[(morpholin-3-l)methane-sulfonamido]naphthalen-1-yl}methyl)-1H-pyr-rolo[2,3-b]pyridine-2-carboxylic acid]
 | 0.1 to 0.5 µM | NCc1ccc2cc(C(=O)O)n(Cc3cc(NS(=O)(=O)C[C@H]4CCOC4)cc4ccccc34)c2n1 (racemic) [Compound 262, rac-6-(aminomethyl)-1-[(3-{[(3R)-oxolan-3-yl]-methanesulfonamido}-naphthalen-1-yl)methyl]-1H-pyrrolo[2,3-b]pyr-idine-2-carboxylic acid]
 | 0.1 to 0.5 µM | CC(=O)O[C@H](C)OC(=O)c1cc2ccc(CN)nc2n1Cc1cc(NS(=O)(=O)CC2CCNCC2)cc2ccccc12 (racemic) [Compound 263, 1-[6-(aminomethyl)-1-({3-[(piperidin-4-yl)-methanesulfonamido]-naphthlen-1-yl}methyl)-1H-pyrrolo[2,3-b]pyr-idine-2-carbonyloxy]-ethyl acetate]
 | 0.5 to 3 µM | NCc1ccc2cc(C(=O)O)n(Cc3cc(NS(=O)(=O)[C@H]4CCOC4)cc4ccccc34)c2n1 (racemic) [Compound 273, rac-6-(aminomethyl)-1-({3-[(3R)-oxolane-3-sulfonamido]naphthalen-1-yl}methyl)-1H-pyr-rolo[2,3-b]pyridine-2-carboxylic acid]
 | 0.5 to 3 µM | CCN1C[C@@H](S(=O)(=O)Nc2cc(Cn3c(C(=O)O)cc4ccc(CN)nc43)c3ccccc3c2)CC1=O (racemic) [Compound 282, rac-6-(aminomethyl)-1-({3-[(3R)-1-ethyl-5-oxopyrrolidine-3-sulfon-amido]naphthalen-1-yl}-methyl)-1H-pyrrolo[2,3-b]pyridine-2-carboxylic acid]
 | 0.5 to 3 µM | C[C@H]1CCC(C)(C)N1C(=O)Nc1cc(Cn2c(C(=O)O)cc3ccc(CN)nc32)c2ccccc2c1 (racemic) [Compound 302, rac-6-(aminomethyl)-1-[(3-{[(SR)-2,2,5-trimeth-ylpyrrolidine-1-carbon-yl]amino}naphthalen-1-yl)methyl]-1H-pyrrolo-[2,3-b]pyridine-2-carbox-ylic acid]
 | 0.5 to 3 µM | CC(C)[C@H]1CCN(C(=O)Nc2cc(Cn3c(C(=O)O)cc4ccc(CN)nc43)c3ccccc3c2)C1 (racemic) [Compound 303, rac-6-(aminomethyl)-1-[(3-{[(3R)-3-(propan-2-yl)pyrrolidine-1-carbon-yl]amino}naphthalen-1-yl)methyl]-1H-pyrrolo-[2,3-b]pyridine-2-car-boxylic acid]
 | 0.5 to 3 µM | CC[C@H]1CCCCN1C(=O)Nc1cc(Cn2c(C(=O)O)cc3ccc(CN)nc32)c2ccccc2c1 (racemic) [Compound 306, rac-6-(aminomethyl)-1-[(3-{[(2R)-2-ethylpiper-idine-1-carbonyl]amino}-naphthalen-1-yl)methyl]-1H-pyrrolo[2,3-b]pyr-idine-2-carboxylic acid]
